Earlier results on four molecules are cited in US9763983B2, “Natural killer cells from placenta” (ANTHROGENESIS CORPORATION, priority 2013, dated 2017).

Each structure is given as a SMILES string.

The conditions of the data set: disclosed in US 2005/0096351 A1; for hygroscopicity: polymorphic form.

For `Nc1cccc2c1CN(C1CCC(=O)NC1=O)C2=O` (stereo not shown) [Form A, 3-(4-amino-1-oxo-1,3 dihydro-isoindol-2-yl)-piperidene-2,6-dione], the “stability / interconversion of polymorphic form” value (shortened to “stability / interconversion”) is recorded as “most thermodynamically stable anhydrous polymorph” and the hygroscopicity result is given as “weakly or not hygroscopic”.
On to `Nc1cccc2c1CN(C1CCC(=O)NC1=O)C2=O` (stereo not shown) [Form B, 3-(4-amino-1-oxo-1,3 dihydro-isoindol-2-yl)-piperidene-2,6-dione], for which the “stability / interconversion” value is reported as “converts to Form E in aqueous solvent systems”.
For `Nc1cccc2c1CN(C1CCC(=O)NC1=O)C2=O` (stereo not shown) [Form C, 3-(4-amino-1-oxo-1,3 dihydro-isoindol-2-yl)-piperidene-2,6-dione], the “stability / interconversion” value is given as “can convert to Form B at higher relative humidities” and the hygroscopicity entry is on record as “not hygroscopic below about 85% RH”.
Consider `Nc1cccc2c1CN(C1CCC(=O)NC1=O)C2=O` (stereo not shown) [Form D, 3-(4-amino-1-oxo-1,3 dihydro-isoindol-2-yl)-piperidene-2,6-dione], for which the “stability / interconversion” value is reported as “convert to Form B when stressed at higher relative humidities” and the hygroscopicity result is “either weakly or not hygroscopic”.
